Measurements published in the supplement of paper PMC10307832.

Assays:
Test in all cases: relative viability (nuclei count vs DMSO), 5 days (fraction); higher = more cells survive
[1] = tested on: HCC-15
How it was run: (§1)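 The day after seeding in 1536-well plates, lung cancer cell lines were treated by pin tool with a single drug, or with a fixed anchor-drug dose together with five library-drug doses (not always all listed) in √10 steps. After 5 days, a combined fix-and-stain solution (final 0.05% Triton X-100, 1% formaldehyde, 1 ug/ml Hoechst) was added. Nuclei counted on 4× images gave relative viability as treated counts over vehicle counts, reported as the median of duplicate plates.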

[2] = tested on: HCC-827
How it was run: as §1

[3] = tested on: COR-L 105
How it was run: as §1

[4] = tested on: HCC-44
How it was run: as §1

[5] = tested on: EPLC-272H
How it was run: as §1

[6] = tested on: NCI-H522
How it was run: as §1

[7] = tested on: SK-MES-1
How it was run: as §1

[8] = tested on: HCC-78
How it was run: as §1

[9] = tested on: NCI-H1648
How it was run: as §1

[10] = tested on: ABC-1
How it was run: as §1

[11] = tested on: NCI-H2009
How it was run: as §1

[12] = tested on: NCI-H596
How it was run: as §1

[13] = tested on: RERF-LC-KJ
How it was run: as §1

[14] = tested on: NCI-H661
How it was run: as §1

[15] = tested on: SW 1573
How it was run: as §1

[16] = tested on: NCI-H650
How it was run: as §1

[17] = tested on: LCLC-97TM1
How it was run: as §1

[18] = tested on: NCI-H1395
How it was run: as §1

[19] = tested on: NCI-H647
How it was run: as §1

[20] = tested on: HCC-366
How it was run: as §1

[21] = tested on: NCI-H1993
How it was run: as §1

[22] = tested on: NCI-H358
How it was run: as §1

`Oc1nc(-c2ccc(C(F)(F)F)cc2)nc2c1CSCC2` [XAV939] + O=C(CCCCCCC(=O)Nc1ccccc1)NO [Vorinostat] (partner 1 µM) was tested, and the relative viability ([1]; first compound 0.08 µM) was 0.824, the relative viability ([1]; first compound 0.253 µM) was 0.742 and the relative viability ([1]; first compound 0.8 µM) was 0.837. For the same molecule, the relative viability ([1]; first compound 2.53 µM) was 0.692, the relative viability ([2]; first compound 0.08 µM) was 0.872 and the relative viability ([2]; first compound 0.253 µM) was 0.867. The relative viability ([2]; first compound 0.8 µM) was 0.803, the relative viability ([2]; first compound 2.53 µM) was 0.686 and the relative viability ([3]; first compound 0.08 µM) was 0.85. For the same molecule, the relative viability ([3]; first compound 0.253 µM) was 0.659, the relative viability ([3]; first compound 0.8 µM) was 0.719 and the relative viability ([3]; first compound 2.53 µM) was 0.65. The relative viability ([4]; first compound 0.08 µM) was 0.981, the relative viability ([4]; first compound 0.253 µM) was 0.919 and the relative viability ([4]; first compound 0.8 µM) was 0.947. The relative viability ([4]; first compound 2.53 µM) was 1.04, the relative viability ([5]; first compound 0.08 µM) was 0.369 and the relative viability ([5]; first compound 0.253 µM) was 0.339. It also gave a relative viability ([5]; first compound 0.8 µM) of 0.746, a relative viability ([5]; first compound 2.53 µM) of 0.324 and a relative viability ([6]; first compound 0.08 µM) of 1.17. It also gave a relative viability ([6]; first compound 0.253 µM) of 0.851, a relative viability ([6]; first compound 0.8 µM) of 0.718 and a relative viability ([6]; first compound 2.53 µM) of 0.846. The relative viability ([7]; first compound 0.08 µM) was 1.1, the relative viability ([7]; first compound 0.253 µM) was 0.954 and the relative viability ([7]; first compound 0.8 µM) was 0.92. The relative viability ([7]; first compound 2.53 µM) was 0.831, the relative viability ([8]; first compound 0.08 µM) was 0.526 and the relative viability ([8]; first compound 0.253 µM) was 0.453. For the same molecule, the relative viability ([8]; first compound 0.8 µM) was 0.443, the relative viability ([8]; first compound 2.53 µM) was 0.415 and the relative viability ([9]; first compound 0.253 µM) was 0.522. It also gave a relative viability ([9]; first compound 0.8 µM) of 0.315, a relative viability ([9]; first compound 2.53 µM) of 0.285 and a relative viability ([10]; first compound 0.253 µM) of 0.767. The relative viability ([10]; first compound 0.8 µM) was 1.12, the relative viability ([10]; first compound 2.53 µM) was 0.568 and the relative viability ([11]; first compound 0.08 µM) was 0.754. It also gave a relative viability ([11]; first compound 0.253 µM) of 0.709, a relative viability ([11]; first compound 0.8 µM) of 0.743 and a relative viability ([11]; first compound 2.53 µM) of 0.536. The relative viability ([12]; first compound 0.08 µM) was 0.642, the relative viability ([12]; first compound 0.253 µM) was 0.623 and the relative viability ([12]; first compound 0.8 µM) was 0.587. It also gave a relative viability ([12]; first compound 2.53 µM) of 0.543, a relative viability ([13]; first compound 0.08 µM) of 0.707 and a relative viability ([13]; first compound 0.253 µM) of 0.609. It also gave a relative viability ([13]; first compound 0.8 µM) of 0.643, a relative viability ([13]; first compound 2.53 µM) of 0.368 and a relative viability ([14]; first compound 0.08 µM) of 0.807. It also gave a relative viability ([14]; first compound 0.253 µM) of 0.674, a relative viability ([14]; first compound 0.8 µM) of 0.777 and a relative viability ([14]; first compound 2.53 µM) of 0.777. The relative viability ([15]; first compound 0.08 µM) was 0.922, the relative viability ([15]; first compound 0.253 µM) was 0.8 and the relative viability ([15]; first compound 0.8 µM) was 0.542. It also gave a relative viability ([15]; first compound 2.53 µM) of 0.373, a relative viability ([16]; first compound 0.08 µM) of 0.461 and a relative viability ([16]; first compound 0.253 µM) of 0.345. For the same molecule, the relative viability ([16]; first compound 0.8 µM) was 0.506, the relative viability ([16]; first compound 2.53 µM) was 0.368 and the relative viability ([17]; first compound 0.08 µM) was 1.05. It also gave a relative viability ([17]; first compound 0.253 µM) of 0.686, a relative viability ([17]; first compound 2.53 µM) of 0.449 and a relative viability ([18]; first compound 0.08 µM) of 0.746. It also gave a relative viability ([18]; first compound 0.253 µM) of 0.774, a relative viability ([18]; first compound 0.8 µM) of 0.725 and a relative viability ([18]; first compound 2.53 µM) of 0.849. It also gave a relative viability ([19]; first compound 0.08 µM) of 0.581, a relative viability ([19]; first compound 0.253 µM) of 0.545 and a relative viability ([19]; first compound 0.8 µM) of 0.496. For the same molecule, the relative viability ([19]; first compound 2.53 µM) was 0.207, the relative viability ([20]; first compound 0.08 µM) was 0.398 and the relative viability ([20]; first compound 0.253 µM) was 0.25. It also gave a relative viability ([20]; first compound 0.8 µM) of 0.293, a relative viability ([20]; first compound 2.53 µM) of 0.189 and a relative viability ([21]; first compound 0.08 µM) of 0.635. The relative viability ([21]; first compound 0.253 µM) was 0.625, the relative viability ([21]; first compound 0.8 µM) was 0.691 and the relative viability ([21]; first compound 2.53 µM) was 0.789. It also gave a relative viability ([22]; first compound 0.08 µM) of 0.796, a relative viability ([22]; first compound 0.253 µM) of 0.49 and a relative viability ([22]; first compound 0.8 µM) of 0.658. It also gave a relative viability ([22]; first compound 2.53 µM) of 0.565.
